Results: ChEMBL document CHEMBL2311372, “Design and synthesis of novel benzoheterocyclic derivatives as human acrosin inhibitors by scaffold hopping” (Eur J Med Chem, 2013)

Target: Acrosin (Homo sapiens, UniProt P10323)
Assay: Inhibition of human acrosin using N-alpha-benzoyl-DL-arginine para-nitroanilide-HCl as substrate after 3 hrs by spectrophotometry

Sequence of Acrosin (P10323 20-42 limits assumed): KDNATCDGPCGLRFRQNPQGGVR
Sequence of Acrosin (P10323 43-343 limits assumed): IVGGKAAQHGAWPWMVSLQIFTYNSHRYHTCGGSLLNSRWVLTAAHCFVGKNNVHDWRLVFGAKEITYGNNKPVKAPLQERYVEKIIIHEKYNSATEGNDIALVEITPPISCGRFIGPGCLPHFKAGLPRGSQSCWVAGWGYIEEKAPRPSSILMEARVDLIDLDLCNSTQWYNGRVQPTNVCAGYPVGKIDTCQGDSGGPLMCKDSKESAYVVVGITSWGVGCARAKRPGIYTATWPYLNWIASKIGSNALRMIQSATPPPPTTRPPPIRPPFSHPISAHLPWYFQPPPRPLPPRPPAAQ

SMILES	IC50 [mM]
O=Cc1cc(-c2ccc(Cl)cc2Cl)on1	39
O=C(NCCO)Nc1nc2ccc(S(=O)(=O)NCc3ccccc3F)cc2[nH]1	0.08
COc1cccc(CNS(=O)(=O)c2ccc3nc(NC(=O)NCCO)[nH]c3c2)c1	7.32
O=C(NCCO)Nc1nc2ccc(S(=O)(=O)NCc3cc(Cl)cc(Cl)c3)cc2[nH]1	2.45
O=C(NCCO)Nc1nc2ccc(S(=O)(=O)NCc3cc(F)cc(F)c3)cc2[nH]1	0.34
COc1ccccc1CNS(=O)(=O)c1ccc2nc(NC(=O)NCCO)[nH]c2c1	6.04
Cc1cccc(CNS(=O)(=O)c2ccc3nc(NC(=O)NCCO)[nH]c3c2)c1	5.45
O=C(NCCO)Nc1nc2ccc(S(=O)(=O)NCc3ccccc3)cc2[nH]1	0.28
O=C(NCCO)Nc1nc2ccc(S(=O)(=O)NCc3ccccc3Cl)cc2[nH]1	1.06
CCCCCCNS(=O)(=O)c1ccc2nc(NC(=O)NCCO)[nH]c2c1	1.62
CCCCN(CCCC)CC(=O)Nc1nc2ccc(Br)cc2s1	2.78
CC(C)CCN(CCC(C)C)CC(=O)Nc1nc2ccc(Br)cc2s1	1.09
CCCCCN(CCCCC)CC(=O)Nc1nc2ccc(Br)cc2s1	0.54
CCCCCN1CCN(CC(=O)Nc2nc3ccc(Br)cc3s2)CC1	5.08
COc1ccc(-c2cc(C(=O)N(C)CCO)n[nH]2)cc1	6.81
COc1ccc(-c2cc(C(=O)N(CCO)CCO)n[nH]2)cc1	5.73
COc1ccc(-c2cc(C(=O)NCCCO)[nH]n2)cc1	1.43
COc1ccc(-c2cc(C(=O)NCC(C)O)n[nH]2)cc1 (stereo unspecified)	8.92
CCOC(=O)c1nn(C(=O)c2ccc(Cl)cc2Cl)c2ccccc12	3.24
CNC(=O)c1nn(C(=O)c2ccc(Cl)cc2Cl)c2ccccc12	3.78
Cc1ccc(S(=O)(=O)NC(CCCCN)C(=O)CCl)cc1 (stereo unspecified)	143
